{
  "source": "PubChem BioAssay (NCI)",
  "experiment_in_all_cases": "growth of human tumour cells (NCI), 384-well format",
  "key": {"[1]": {"system": "786-0 renal"}, "[2]": {"system": "A498 renal"}, "[3]": {"system": "A549 NSCLC"}, "[4]": {"system": "ACHN renal"}, "[5]": {"system": "BT-549 breast"}, "[6]": {"system": "CAKI-1 renal"}, "[7]": {"system": "CCRF-CEM leukemia"}, "[8]": {"system": "COLO 205 colon"}, "[9]": {"system": "DU-145 prostate"}, "[10]": {"system": "EKVX NSCLC"}, "[11]": {"system": "HCC-2998 colon"}, "[12]": {"system": "HCT-116 colon"}, "[13]": {"system": "HCT-15 colon"}, "[14]": {"system": "HL-60(TB) leukemia"}, "[15]": {"system": "HOP-62 NSCLC"}, "[16]": {"system": "HOP-92 NSCLC"}, "[17]": {"system": "HS 578T breast"}, "[18]": {"system": "HT29 colon"}, "[19]": {"system": "IGROV1 ovarian"}, "[20]": {"system": "K-562 leukemia"}, "[21]": {"system": "KM12 colon"}, "[22]": {"system": "LOX IMVI melanoma"}, "[23]": {"system": "M14 melanoma"}, "[24]": {"system": "MALME-3M melanoma"}, "[25]": {"system": "MCF7 breast"}, "[26]": {"system": "MDA-MB-231 breast"}, "[27]": {"system": "MDA-MB-435 melanoma"}, "[28]": {"system": "MDA-MB-468 breast"}, "[29]": {"system": "MOLT-4 leukemia"}, "[30]": {"system": "NCI-H226 lung"}},
  "note": "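GI50 marks 50% less growth. TGI denotes the concentration required for complete inhibition of growth.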",
  "data": [
    {"smiles": "Cc1cc(C(=O)Nc2nc3cccc(Cl)c3n2[C@@H]2CCCCN(C(=O)/C=C/CN(C)C)C2)ccn1", "values": [
      {"measurement": "GI50", "setting": "[1]", "result": 2.98, "unit": "µM"},
      {"measurement": "TGI", "setting": "[1]", "result": 13.1, "unit": "µM"},
      {"measurement": "GI50", "setting": "[2]", "result": 1.45, "unit": "µM"},
      {"measurement": "TGI", "setting": "[2]", "result": 10.8, "unit": "µM"},
      {"measurement": "GI50", "setting": "[3]", "result": 2.49, "unit": "µM"},
      {"measurement": "TGI", "setting": "[3]", "result": 13.6, "unit": "µM"},
      {"measurement": "GI50", "setting": "[4]", "result": 1.48, "unit": "µM"},
      {"measurement": "TGI", "setting": "[4]", "result": 12.5, "unit": "µM"},
      {"measurement": "GI50", "setting": "[5]", "result": 2.66, "unit": "µM"},
      {"measurement": "TGI", "setting": "[5]", "result": 9.69, "unit": "µM"},
      {"measurement": "GI50", "setting": "[6]", "result": 1.44, "unit": "µM"},
      {"measurement": "TGI", "setting": "[6]", "result": 14.8, "unit": "µM"},
      {"measurement": "GI50", "setting": "[7]", "result": 1.56, "unit": "µM"},
      {"measurement": "TGI", "setting": "[7]", "result": 2.98, "unit": "µM"},
      {"measurement": "GI50", "setting": "[8]", "result": 4.23, "unit": "µM"},
      {"measurement": "TGI", "setting": "[8]", "result": 15.6, "unit": "µM"},
      {"measurement": "GI50", "setting": "[9]", "result": 2.34, "unit": "µM"},
      {"measurement": "TGI", "setting": "[9]", "result": 13.6, "unit": "µM"},
      {"measurement": "GI50", "setting": "[10]", "result": 0.648, "unit": "µM"},
      {"measurement": "TGI", "setting": "[10]", "result": 3.73, "unit": "µM"},
      {"measurement": "GI50", "setting": "[11]", "result": 2.44, "unit": "µM"},
      {"measurement": "TGI", "setting": "[11]", "result": 6.43, "unit": "µM"},
      {"measurement": "GI50", "setting": "[12]", "result": 3.17, "unit": "µM"},
      {"measurement": "TGI", "setting": "[12]", "result": 10.9, "unit": "µM"},
      {"measurement": "GI50", "setting": "[13]", "result": 2.73, "unit": "µM"},
      {"measurement": "TGI", "setting": "[13]", "result": 10.7, "unit": "µM"},
      {"measurement": "GI50", "setting": "[14]", "result": 1.49, "unit": "µM"},
      {"measurement": "TGI", "setting": "[14]", "result": 2.82, "unit": "µM"},
      {"measurement": "GI50", "setting": "[15]", "result": 1.93, "unit": "µM"},
      {"measurement": "TGI", "setting": "[15]", "result": 5.59, "unit": "µM"},
      {"measurement": "GI50", "setting": "[16]", "result": 2.93, "unit": "µM"},
      {"measurement": "TGI", "setting": "[16]", "result": 13.9, "unit": "µM"},
      {"measurement": "GI50", "setting": "[17]", "result": 1.62, "unit": "µM"},
      {"measurement": "TGI", "setting": "[17]", "result": 6.37, "unit": "µM"},
      {"measurement": "GI50", "setting": "[18]", "result": 4.41, "unit": "µM"},
      {"measurement": "TGI", "setting": "[18]", "result": 16.1, "unit": "µM"},
      {"measurement": "GI50", "setting": "[19]", "result": 0.697, "unit": "µM"},
      {"measurement": "TGI", "setting": "[19]", "result": 2.79, "unit": "µM"},
      {"measurement": "GI50", "setting": "[20]", "result": 3.03, "unit": "µM"},
      {"measurement": "TGI", "setting": "[20]", "result": 12.4, "unit": "µM"},
      {"measurement": "GI50", "setting": "[21]", "result": 3.36, "unit": "µM"},
      {"measurement": "TGI", "setting": "[21]", "result": 12.5, "unit": "µM"},
      {"measurement": "GI50", "setting": "[22]", "result": 2.24, "unit": "µM"},
      {"measurement": "TGI", "setting": "[22]", "result": 5.51, "unit": "µM"},
      {"measurement": "GI50", "setting": "[23]", "result": 2.75, "unit": "µM"},
      {"measurement": "TGI", "setting": "[23]", "result": 11.5, "unit": "µM"},
      {"measurement": "GI50", "setting": "[24]", "result": 2.76, "unit": "µM"},
      {"measurement": "TGI", "setting": "[24]", "result": 10.8, "unit": "µM"},
      {"measurement": "GI50", "setting": "[25]", "result": 2.51, "unit": "µM"},
      {"measurement": "TGI", "setting": "[25]", "result": 11.3, "unit": "µM"},
      {"measurement": "GI50", "setting": "[26]", "result": 4.34, "unit": "µM"},
      {"measurement": "TGI", "setting": "[26]", "result": 17, "unit": "µM"},
      {"measurement": "GI50", "setting": "[27]", "result": 3.35, "unit": "µM"},
      {"measurement": "TGI", "setting": "[27]", "result": 12.3, "unit": "µM"},
      {"measurement": "GI50", "setting": "[28]", "result": 0.111, "unit": "µM"},
      {"measurement": "TGI", "setting": "[28]", "result": 0.507, "unit": "µM"},
      {"measurement": "GI50", "setting": "[29]", "result": 1.4, "unit": "µM"},
      {"measurement": "TGI", "setting": "[29]", "result": 2.72, "unit": "µM"},
      {"measurement": "GI50", "setting": "[30]", "result": 3.39, "unit": "µM"}
    ]}
  ]
}
